From US8476265B2, “Compounds-801” (AstraZeneca AB, priority 2010, dated 2013)

Assays:
[1] = target: T1, Adrenergic β2 (Homo sapiens, UniProt P07550); experiment: Adrenergic β2 mediated cAMP production in H292 cells, single concentration 1 μM; type: cell-based; conditions: cAMP as percentage of the maximum response generated by 1E-07M formoterol; for percent of formoterol maximum response at 1 µM: NCI-H292, 1 μM compound, read-out: β2 % effect @1 uM; for β2 % effect @1 uM: 1 μM compound
T1 construct: Adherent H292 cells are removed from tissue culture flasks by treatment with Accutase™ cell detachment solution; endogenous in cells; host or cells: H292 cells
T1 sequence (P07550 whole entry): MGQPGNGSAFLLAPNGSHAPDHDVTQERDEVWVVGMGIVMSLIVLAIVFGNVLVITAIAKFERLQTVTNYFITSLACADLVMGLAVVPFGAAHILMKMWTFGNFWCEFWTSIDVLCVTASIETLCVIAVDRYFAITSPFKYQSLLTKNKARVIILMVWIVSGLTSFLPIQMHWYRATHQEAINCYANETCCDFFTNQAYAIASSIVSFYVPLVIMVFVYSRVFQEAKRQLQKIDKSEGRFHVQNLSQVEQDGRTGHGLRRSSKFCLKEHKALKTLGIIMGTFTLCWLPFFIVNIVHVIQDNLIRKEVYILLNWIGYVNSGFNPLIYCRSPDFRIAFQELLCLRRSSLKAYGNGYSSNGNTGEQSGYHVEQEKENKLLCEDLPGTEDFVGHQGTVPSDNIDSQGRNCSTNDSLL
Procedure, shortened: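 H292 cells pretreated with rolipram (300 μM final) 10 min, then compound at 1 μM final, 1% DMSO, 60 min at room temperature in HBSS/10 mM HEPES pH 7.4/5 mM glucose. Lysate cAMP quantified by AlphaScreen against a standard curve, as % of maximal response to 1E-07M formoterol.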

[2] = target: T2, human muscarinic acetylcholine M3 receptor (Homo sapiens, UniProt P20309); experiment: Muscarinic 3 receptor binding assay ([3H]NMS competition, SPA), single concentration 1 μM; conditions: 1 μM compound; % inhibition specific [3H]-NMS binding
T2 construct: expressed in transfected cells; host or cells: CHO-K1 (Chinese Hamster Ovary) cell membranes
T2 sequence (P20309 whole entry): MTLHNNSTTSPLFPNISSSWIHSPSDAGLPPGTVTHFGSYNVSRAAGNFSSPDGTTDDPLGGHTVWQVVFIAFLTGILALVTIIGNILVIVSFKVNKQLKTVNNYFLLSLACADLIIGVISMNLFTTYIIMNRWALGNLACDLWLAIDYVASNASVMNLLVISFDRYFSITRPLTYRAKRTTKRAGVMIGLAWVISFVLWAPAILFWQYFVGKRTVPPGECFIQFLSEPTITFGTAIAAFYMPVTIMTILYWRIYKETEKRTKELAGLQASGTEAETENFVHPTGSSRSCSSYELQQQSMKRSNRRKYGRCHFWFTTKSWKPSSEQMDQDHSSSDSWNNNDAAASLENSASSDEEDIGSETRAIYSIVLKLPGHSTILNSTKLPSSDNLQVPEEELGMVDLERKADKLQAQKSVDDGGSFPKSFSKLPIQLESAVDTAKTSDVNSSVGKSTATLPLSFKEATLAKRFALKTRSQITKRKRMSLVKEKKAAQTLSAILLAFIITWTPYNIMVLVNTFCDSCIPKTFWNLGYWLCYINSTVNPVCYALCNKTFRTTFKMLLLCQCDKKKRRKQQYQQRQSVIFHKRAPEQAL
Procedure, shortened: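 CHO-K1 membranes expressing human M3 on SPA beads, competition with 0.1 nM [3H]NMS (quarter Kd) in 20 mM HEPES pH 7.4, 5 mM MgCl2, 0.1% BSA, 1% DMSO; compound at 1 μM. 16 h at room temperature. Value is % inhibition of specific binding, non-specific defined with 1 μM atropine.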

Row | SMILES | percent of formoterol maximum response at 1 µM [1] | inhibition at 1 µM [2] | β2 % effect @1 uM [1] | M3 % inhibition @1 uM [2]
1 | Cc1ccc2[nH]c(C(=O)N3CCOC4(CCN(Cc5cccc(CCOCCC(=O)N(CCNCCc6ccc(O)c7c6OCC(=O)N7)C6CCCCC6)c5)CC4)C3)cc2c1 [Example 136, N-Cyclohexyl-N-(2-(2-(5-hydroxy-3-oxo-3,4-dihydro-2H-benzo[b][1,4]oxazin-8-yl)ethylamino)ethyl)-3-(3-((4-(5-methyl-1H-indole-2-carbonyl)-1-oxa-4,9-diazaspiro[5.5]undecan-9-yl)methyl)phenethoxy)propanamide] | 92% | 99% | – | –
2 | O=C1COc2c(CCNCCN(C(=O)CCOCCc3cccc(CN4CCC5(CC4)CN(C(=O)Cc4c[nH]c6ccccc46)CCO5)c3)C3CCCCC3)ccc(O)c2N1 [Example 141, 3-(3-((4-(2-(1H-Indol-3-yl)acetyl)-1-oxa-4,9-diazaspiro[5.5]undecan-9-yl)methyl)phenethoxy)-N-cyclohexyl-N-(2-(2-(5-hydroxy-3-oxo-3,4-dihydro-2H-benzo[b][1,4]oxazin-8-yl)ethylamino)ethyl)propanamide] | 108% | 96% | – | –
3 | Cc1cc(C)n2nc(C(=O)N3CCOC4(CCN(Cc5cccc(CCOCCC(=O)N(CCNCCc6ccc(O)c7c6OCC(=O)N7)C6CCCCC6)c5)CC4)C3)cc2n1 [Example 142, N-Cyclohexyl-3-(3-((4-(5,7-dimethylpyrazolo[1,5-a]pyrimidine-2-carbonyl)-1-oxa-4,9-diazaspiro[5.5]undecan-9-yl)methyl)phenethoxy)-N-(2-(2-(5-hydroxy-3-oxo-3,4-dihydro-2H-benzo[b][1,4]oxazin-8-yl)ethylamino)ethyl)propanamide] | 83% | 100% | – | –
4 | O=C1COc2c(CCNCCN(C(=O)CCOCCc3cccc(CN4CCC5(CC4)CN(C(=O)C46CC7CC(F)(CC(F)(C7)C4)C6)CCO5)c3)C3CCCCC3)ccc(O)c2N1 [Example 143] | – | – | 105% | 101%
5 | O=C1COc2c(CCNCCN(C(=O)CCOCCc3cccc(CN4CCC5(CC4)CN(C(=O)c4cnc(-c6ccccc6)[nH]4)CCO5)c3)C3CCCCC3)ccc(O)c2N1 [Example 145, N-Cyclohexyl-N-(2-(2-(5-hydroxy-3-oxo-3,4-dihydro-2H-benzo[b][1,4]oxazin-8-yl)ethylamino)ethyl)-3-(3-((4-(2-phenyl-1H-imidazole-5-carbonyl)-1-oxa-4,9-diazaspiro[5.5]undecan-9-yl)methyl)phenethoxy)propanamide] | 117% | 90% | – | –
6 | O=C1COc2c(CCNCCN(C(=O)CCOCCc3cccc(CN4CCC5(CC4)CN(C(=O)CC4(O)CCCCCC4)CCO5)c3)C3CCCCC3)ccc(O)c2N1 [Example 148, N-Cyclohexyl-N-(2-(2-(5-hydroxy-3-oxo-3,4-dihydro-2H-benzo[b][1,4]oxazin-8-yl)ethylamino)ethyl)-3-(3-((4-(2-(l-hydroxycycloheptyl)acetyl)-1-oxa-4,9-diazaspiro[5.5]undecan-9-yl)methyl)phenethoxy)propanamide] | – | – | 108% | 95%
7 | O=C1COc2c(CCNCCN(C(=O)CCOCCc3cccc(CN4CCC5(CC4)CN(C(=O)CCCOCc4ccccc4)CCO5)c3)C3CCCCC3)ccc(O)c2N1 [Example 151, 3-(3-((4-(4-(Benzyloxy)butanoyl)-1-oxa-4,9-diazaspiro[5.5]undecan-9-yl)methyl)phenethoxy)-N-cyclohexyl-N-(2-(2-(5-hydroxy-3-oxo-3,4-dihydro-2H-benzo[b][1,4]oxazin-8-yl)ethylamino)ethyl)propanamide] | 113% | 97% | – | –
8 | N#Cc1ccc(C(=O)N2CCOC3(CCN(Cc4cccc(CCOCCC(=O)N(CCNCCc5ccc(O)c6c5OCC(=O)N6)C5CCCCC5)c4)CC3)C2)cc1 [Example 156, 3-(3-((4-(4-Cyanobenzoyl)-1-oxa-4,9-diazaspiro[5.5]undecan-9-yl)methyl)phenethoxy)-N-cyclohexyl-N-(2-(2-(5-hydroxy-3-oxo-3,4-dihydro-2H-benzo[b][1,4]oxazin-8-yl)ethylamino)ethyl)propanamide] | 86% | 93% | – | –

Continued, in another order:

Row | percent of formoterol maximum response at 1 µM [1] | inhibition at 1 µM [2] | SMILES | β2 % effect @1 uM [1] | M3 % inhibition @1 uM [2]
9 | 88% | 100% | CC(C)C[C@H](O)C(=O)N1CCOC2(CCN(Cc3cccc(CCOCCC(=O)N(CCNCCc4ccc(O)c5c4OCC(=O)N5)C4CCCCC4)c3)CC2)C1 [Example 137, (S)-N-Cyclohexyl-N-(2-(2-(5-hydroxy-3-oxo-3,4-dihydro-2H-benzo[b][1,4]oxazin-8-yl)ethylamino)ethyl)-3-(3-((4-(2-hydroxy-4-methylpentanoyl)-1-oxa-4,9-diazaspiro[5.5]undecan-9-yl)methyl)phenethoxy)propanamide] | – | –
10 | 94% | 100% | Cc1ccccc1CC(=O)N1CCOC2(CCN(Cc3cccc(CCOCCC(=O)N(CCNCCc4ccc(O)c5c4OCC(=O)N5)C4CCCCC4)c3)CC2)C1 [Example 139, N-Cyclohexyl-N-(2-(2-(5-hydroxy-3-oxo-3,4-dihydro-2H-benzo[b][1,4]oxazin-8-yl)ethylamino)ethyl)-3-(3-((4-(2-o-tolylacetyl)-1-oxa-4,9-diazaspiro[5.5]undecan-9-yl)methyl)phenethoxy)propanamide] | – | –
11 | 112% | 100% | O=C1COc2c(CCNCCN(C(=O)CCOCCc3cccc(CN4CCC5(CC4)CN(C(=O)C(O)C(F)(F)F)CCO5)c3)C3CCCCC3)ccc(O)c2N1 (stereo not drawn) [Example 152, N-Cyclohexyl-N-(2-(2-(5-hydroxy-3-oxo-3,4-dihydro-2H-benzo[b][1,4]oxazin-8-yl)ethylamino)ethyl)-3-(3-((4-(3,3,3-trifluoro-2-hydroxypropanoyl)-1-oxa-4,9-diazaspiro[5.5]undecan-9-yl)methyl)phenethoxy)propanamide] | – | –
12 | 98% | 101% | O=C1COc2c(CCNCCN(C(=O)CCOCCc3cccc(CN4CCC5(CC4)CN(C(=O)c4cccs4)CCO5)c3)C3CCCCC3)ccc(O)c2N1 [Example 153, N-Cyclohexyl-N-(2-(2-(5-hydroxy-3-oxo-3,4-dihydro-2H-benzo[b][1,4]oxazin-8-yl)ethylamino)ethyl)-3-(3-((4-(thiophene-2-carbonyl)-1-oxa-4,9-diazaspiro[5.5]undecan-9-yl)methyl)phenethoxy)propanamide] | – | –
13 | 93% | 99% | CC(C)(C)C(=O)N1CCOC2(CCN(Cc3cccc(CCOCCC(=O)N(CCNCCc4ccc(O)c5c4OCC(=O)N5)C4CCCCC4)c3)CC2)C1 [Example 155, N-Cyclohexyl-N-(2-(2-(5-hydroxy-3-oxo-3,4-dihydro-2H-benzo[b][1,4]oxazin-8-yl)ethylamino)ethyl)-3-(3-((4-pivaloyl-1-oxa-4,9-diazaspiro[5.5]undecan-9-yl)methyl)phenethoxy)propanamide] | – | –
14 | 94% | 98% | Cc1ccccc1C(=O)N1CCOC2(CCN(Cc3cccc(CCOCCC(=O)N(CCNCCc4ccc(O)c5c4OCC(=O)N5)C4CCCCC4)c3)CC2)C1 [Example 158, N-Cyclohexyl-N-(2-(2-(5-hydroxy-3-oxo-3,4-dihydro-2H-benzo[b][1,4]oxazin-8-yl)ethylamino)ethyl)-3-(3-((4-(2-methylbenzoyl)-1-oxa-4,9-diazaspiro[5.5]undecan-9-yl)methyl)phenethoxy)propanamide] | – | –
15 | 79% | 99% | CCCC(C)C(=O)N1CCOC2(CCN(Cc3cccc(CCOCCC(=O)N(CCNCCc4ccc(O)c5c4OCC(=O)N5)C4CCCCC4)c3)CC2)C1 (stereo not drawn) [Example 160, N-Cyclohexyl-N-(2-(2-(5-hydroxy-3-oxo-3,4-dihydro-2H-benzo[b][1,4]oxazin-8-yl)ethylamino)ethyl)-3-(3-((4-(2-methylpentanoyl)-1-oxa-4,9-diazaspiro[5.5]undecan-9-yl)methyl)phenethoxy)propanamide] | – | –
16 | 95% | 100% | O=C1COc2c(CCNCCN(C(=O)CCOCCc3cccc(CN4CCC5(CC4)CN(C(=O)c4ccc(F)cc4F)CCO5)c3)C3CCCCC3)ccc(O)c2N1 [Example 162, N-Cyclohexyl-3-(3-((4-(2,4-difluorobenzoyl)-1-oxa-4,9-diazaspiro[5.5]undecan-9-yl)methyl)phenethoxy)-N-(2-(2-(5-hydroxy-3-oxo-3,4-dihydro-2H-benzo[b][1,4]oxazin-8-yl)ethylamino)ethyl)propanamide] | – | –
17 | 97% | 98% | O=C1COc2c(CCNCCN(C(=O)CCOCCc3cccc(CN4CCC5(CC4)CN(C(=O)c4c(F)cccc4F)CCO5)c3)C3CCCCC3)ccc(O)c2N1 [Example 163, N-Cyclohexyl-3-(3-((4-(2,6-difluorobenzoyl)-1-oxa-4,9-diazaspiro[5.5]undecan-9-yl)methyl)phenethoxy)-N-(2-(2-(5-hydroxy-3-oxo-3,4-dihydro-2H-benzo[b][1,4]oxazin-8-yl)ethylamino)ethyl)propanamide] | – | –
18 | 96% | 100% | O=C1COc2c(CCNCCN(C(=O)CCOCCc3cccc(CN4CCC5(CC4)CN(C(=O)[C@H](O)c4ccccc4)CCO5)c3)C3CCCCC3)ccc(O)c2N1 [Example 166, (R)-N-Cyclohexyl-3-(3-((4-(2-hydroxy-2-phenylacetyl)-1-oxa-4,9-diazaspiro[5.5]undecan-9-yl)methyl)phenethoxy)-N-(2-(2-(5-hydroxy-3-oxo-3,4-dihydro-2H-benzo[b][1,4]oxazin-8-yl)ethylamino)ethyl)propanamide] | – | –
